According to patent US9850216B2 (H. LEE MOFFITT CANCER CENTER AND RESEARCH INSTITUTE, INC., priority 2013, dated 2017):
Several values for one entry are separate records, joined by “and”; a condition that tells them apart may be missing. Equal entries are not always repeated. Where two headings read alike, the source gives them in different places.

Target: ACK1 (Homo sapiens, UniProt Q07912)
Experiment: ACK1 ELISA: phosphorylation of AKT-derived peptide
Assay type: biochemical
[1] = 10 μM, Table 1, replicate values listed, hydrochloride
[2] = 10 μM, Table 1, replicate values listed
[3] = 10 μM, Table 1, replicate values listed, read-out: % Inhibition at 10 μM (ELISA)
[4] = 10 μM, Table 2, library 9, read-out: % Inhibition @ 10 μM (ELISA)
[5] = 10 μM, read-out: ACK1 inhibition at 10 μM (ELISA)

Sequence of ACK1 (Q07912 whole entry): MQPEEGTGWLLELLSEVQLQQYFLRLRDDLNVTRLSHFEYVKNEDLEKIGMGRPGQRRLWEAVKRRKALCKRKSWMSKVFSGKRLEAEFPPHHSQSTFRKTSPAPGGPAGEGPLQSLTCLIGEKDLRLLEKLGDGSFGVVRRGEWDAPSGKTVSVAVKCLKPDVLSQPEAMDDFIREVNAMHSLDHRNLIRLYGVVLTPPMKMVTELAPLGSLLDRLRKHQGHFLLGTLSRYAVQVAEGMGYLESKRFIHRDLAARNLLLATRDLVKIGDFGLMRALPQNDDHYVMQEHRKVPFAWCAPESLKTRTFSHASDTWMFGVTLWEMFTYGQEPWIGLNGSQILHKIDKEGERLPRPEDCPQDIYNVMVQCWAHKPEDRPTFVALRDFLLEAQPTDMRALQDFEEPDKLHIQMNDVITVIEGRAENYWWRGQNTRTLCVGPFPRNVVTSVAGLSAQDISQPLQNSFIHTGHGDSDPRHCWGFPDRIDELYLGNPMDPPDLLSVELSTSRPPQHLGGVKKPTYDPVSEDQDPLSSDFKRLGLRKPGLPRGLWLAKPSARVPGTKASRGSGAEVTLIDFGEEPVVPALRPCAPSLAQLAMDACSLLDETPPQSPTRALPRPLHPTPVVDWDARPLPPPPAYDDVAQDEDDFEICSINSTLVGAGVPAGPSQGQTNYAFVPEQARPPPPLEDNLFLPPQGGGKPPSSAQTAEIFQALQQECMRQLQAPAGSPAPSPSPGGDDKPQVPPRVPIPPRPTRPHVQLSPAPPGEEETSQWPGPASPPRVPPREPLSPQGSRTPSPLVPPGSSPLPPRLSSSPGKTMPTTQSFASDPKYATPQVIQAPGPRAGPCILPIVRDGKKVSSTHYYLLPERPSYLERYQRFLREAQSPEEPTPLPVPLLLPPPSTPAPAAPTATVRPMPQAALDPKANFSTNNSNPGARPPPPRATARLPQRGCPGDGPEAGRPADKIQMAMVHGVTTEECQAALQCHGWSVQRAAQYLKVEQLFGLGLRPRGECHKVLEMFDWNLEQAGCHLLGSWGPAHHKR

| % Inhibition at 10 μM (ELISA) [2] | inhibition at 10 µM [3] [%] | Structure (SMILES) | other results |
| --- | --- | --- | --- |
|  |  | Cc1cnc(Nc2ccc(O)c(F)c2)nc1NCC1CCCO1.Cl (centres unmarked) [YL7-170-1, 2-Fluoro-4-(5-methyl-4-((tetrahydrofuran-2-yl)methylamino)pyrimidin-2-ylamino)phenol hydrochloride] | % Inhibition at 10 μM (ELISA) [1]: 51% and 29% and 47% |
| 65% | 64 | CCOC(=O)C1CCN(c2ccc(Nc3ncc(Br)c(NCC4CCCO4)n3)cc2)CC1.Cl (centres unmarked) [DZ1-093, Ethyl 1-(4-(5-bromo-4-((tetrahydrofuran-2-yl)methylamino)pyrimidin-2-ylamino)phenyl)piperidine-4-carboxylate] |  |
|  |  | Brc1cnc(Nc2ccc(N3CCNCC3)cc2)nc1NCC1CCCO1 (centres unmarked) [Compound 15] | inhibition at 10 µM [4]: 65% |
| 72% | 70 | Cl.O=C(O)CCc1ccc(Nc2ncc(Cl)c(NC[C@@H]3CCCO3)n2)cc1 [NT1-015, (S)-3-(4-(5-Chloro-4-((tetrahydrofuran-2-yl)methylamino)pyrimidin-2-ylamino)phenyl)propanoic acid] |  |
| 73% | 75 | Cl.O=C(O)CCc1ccc(Nc2ncc(Cl)c(NCC3CCCO3)n2)cc1 (centres unmarked) [NT1-007, 3-(4-(5-Chloro-4-((tetrahydrofuran-2-yl)methylamino)pyrimidin-2-ylamino)phenyl)propanoic acid] |  |
| 74% | 68 | Cl.O=C(O)Cc1ccc(Nc2ncc(Cl)c(NC[C@H]3CCCO3)n2)cc1 [NT1-012, (R)-2-(4-(5-Chloro-4-((tetrahydrofuran-2-yl)methylamino)pyrimidin-2-ylamino)phenyl)acetic acid] |  |
| 61% | 73 | CCNC(=O)C1CCN(c2ccc(Nc3ncc(Cl)c(NC[C@@H]4CCCO4)n3)cc2)CC1 [SG1-083] |  |
| 75% | 61 | Cl.O=C(O)CCc1ccc(Nc2ncc(Cl)c(NC[C@H]3CCCO3)n2)cc1 [NT1-014, (R)-3-(4-(5-Chloro-4-((tetrahydrofuran-2-yl)methylamino)pyrimidin-2-ylamino)phenyl)propanoic acid] |  |
| 82% | 88 | COc1cc(N2CCOCC2)ccc1Nc1ncc(Cl)c(NCC2CCCO2)n1 (centres unmarked) [MH1-030-4, 5-chloro-N2-(2-methoxy-4-morpholinophenyl)-N4-((tetrahydrofuran-2-yl)methyl)pyrimidine-2,4-diamine] |  |
| 85% | 84 | Brc1cnc(Nc2ccc(C3CCNCC3)cc2)nc1NCC1CCCO1.Cl (centres unmarked) [DZ1-088, 5-bromo-N2-(4-(piperidin-4-yl)phenyl)-N4-((tetrahydrofuran-2-yl)methyl)pyrimidine-2,4-diamine] |  |
| 80% | 79 | Cl.Clc1cnc(Nc2ccc(C3CCNCC3)cc2)nc1NCC1CCCO1 (centres unmarked) [NT1-005, 5-Chloro-N^2-(4-(piperidin-4-yl)phenyl)-N^4-((tetrahydrofuran-2-yl)methyl)pyrimidine-2,4-diamine] |  |
| 88% | 77 | Cl.O=C(Nc1c(F)cccc1Cl)c1cnc(Nc2ccc(N3CCOCC3)cc2)nc1NCC1CCCO1 (centres unmarked) [DZ1-092, N-(2-chloro-6-fluorophenyl)-2-(4-morpholinophenylamino)-4-((tetrahydrofuran-2-yl)methylamino)pyrimidine-5-carboxamide] |  |
|  |  | Clc1cnc(Nc2ccc(N3CCNCC3)cc2)nc1NCC1CCCO1 (centres unmarked) [Compound 14] | inhibition at 10 µM [4]: 66 ± 1.5%; inhibition at 10 µM [5]: 66% |
|  |  | Brc1cnc(Nc2ccc(N3CCOCC3)cc2)nc1NCC1CCCO1 (centres unmarked) [Compound 9h] | inhibition at 10 µM [4]: 89 ± 1.4% |
| 96% | 87 | O=C(O)C1CCN(c2ccc(Nc3ncc(Cl)c(NCC4CCCO4)n3)cc2)CC1 (centres unmarked) [YL8-050, 1-(4-(5-Chloro-4-((tetrahydrofuran-2-yl)methylamino)pyrimidin-2-ylamino)phenyl)piperidine-4-carboxylic acid] |  |
| 81% | 72 | Cl.O=C(O)Cc1ccc(Nc2ncc(Cl)c(NCC3CCCO3)n2)cc1 (centres unmarked) [NT1-006, 2-(4-(5-Chloro-4-((tetrahydrofuran-2-yl)methylamino)pyrimidin-2-ylamino)phenyl)acetic acid] |  |
| 74% | 62 | CN(C)CCNC(=O)CCc1ccc(Nc2ncc(Cl)c(NCC3CCCO3)n2)cc1.Cl (centres unmarked) [NT1-028, 3-(4-(5-Chloro-4-((tetrahydrofuran-2-yl)methylamino)pyrimidin-2-ylamino)phenyl)-N-(2-(dimethylamino)ethyl)propanamide] |  |

| % Inhibition at 10 μM (ELISA) [2] | inhibition at 10 µM [3] [%] | Structure (SMILES) | other results |
| --- | --- | --- | --- |
| 69% | 54 | CCOC(=O)C1CCN(c2ccc(Nc3ncc(Cl)c(NC[C@@H]4CCCO4)n3)cc2)CC1.Cl [DZ1-079, (S)-ethyl1-(4-(5-chloro-4-((tetrahydrofuran-2-yl)methylamino)pyrimidin-2-ylamino)phenyl)piperidine-4-carboxylate] |  |
| 75% | 74 | Cl.O=C(O)CCc1ccc(Nc2ncc(Br)c(NCC3CCCO3)n2)cc1 (centres unmarked) [NT1-023, 3-(4-(5-Bromo-4-((tetrahydrofuran-2-yl)methylamino)pyrimidin-2-ylamino)phenyl)propanoic acid] |  |
| 13% | 19 | CN1CCN(c2ccc(Nc3nccc(NCC4CCCO4)n3)cc2)CC1 (centres unmarked) [DZ1-104] |  |
| 33% | 53 | Oc1ccc(Nc2ncc(F)c(NCC3CCCO3)n2)cc1 (centres unmarked) [DZ1-112, 4-(5-fluoro-4-((tetrahydrofuran-2-yl)methylamino)pyrimidin-2-ylamino)phenol] |  |
| 65% | 52 | CCOC(=O)C1CCN(c2ccc(Nc3ncc(Cl)c(NC[C@H]4CCCO4)n3)cc2)CC1.Cl [DZ1-070, (R)-ethyl1-(4-(5-chloro-4-((tetrahydrofuran-2-yl)methylamino)pyrimidin-2-ylamino)phenyl)piperidine-4-carboxylate] |  |
| 76% | 77 | Cl.Clc1cnc(Nc2ccc(C3CCNCC3)cc2)nc1NC[C@@H]1CCCO1 [NT1-011, (S)-5-Chloro-N^2-(4-(piperidin-4-yl)phenyl)-N^4-((tetrahydrofuran-2-yl)methyl)pyrimidine-2,4-diamine] |  |
| 76% | 67 | Cl.Clc1cnc(Nc2ccc(C3CCNCC3)cc2)nc1NC[C@H]1CCCO1 [NT1-010, (R)-5-Chloro-N^2-(4-(piperidin-4-yl)phenyl)-N^4-((tetrahydrofuran-2-yl)methyl)pyrimidine-2,4-diamine] |  |
|  | 37 | Cl.Oc1ccc(Nc2ncc(F)c(NCC3CCCO3)n2)cc1F (centres unmarked) [YL7-164, 2-Fluoro-4-(5-fluoro-4-((tetrahydrofuran-2-yl)methylamino)pyrimidin-2-ylamino)phenol hydrochloride] | % Inhibition at 10 μM (ELISA) [1]: 46% and 55% |
| 76% and 61% and 37% and 27% |  | COc1ccc(Nc2ncc(C(=O)Nc3c(F)cccc3Cl)c(NCC3CCCO3)n2)cc1 (centres unmarked) [YL7-104-1, N-(2-chloro-6-fluorophenyl)-2-(4-methoxyphenylamino)-4-((tetrahydrofuran-2-yl)methylamino)pyrimidine-5-carboxamide] |  |
| 72% | 77 | Clc1cnc(Nc2ccc(CN3CCCCC3)cc2)nc1NCC1CCCO1 (centres unmarked) [MH1-035-3, 5-chloro-N2-(4-(piperidin-1-ylmethyl)phenyl)-N4-((tetrahydrofuran-2-yl)methyl)pyrimidine-2,4-diamine] |  |
| 73% | 61 | CCOC(=O)C1CCN(c2ccc(Nc3ncc(C(=O)Nc4c(F)cccc4Cl)c(NCC4CCCO4)n3)cc2)CC1.Cl (centres unmarked) [DZ1-094, Ethyl 1-(4-(5-(2-chloro-6-fluorophenylcarbamoyl)-4-((tetrahydrofuran-2-yl)methylamino)pyrimidin-2-ylamino)phenyl)piperidine-4-carboxylate] |  |
|  | 65 | Cl.O=C(Nc1c(F)cccc1Cl)c1cnc(Nc2ccc(O)c(F)c2)nc1NCC1CCCO1 (centres unmarked) [YL7-170-2, N-(2-chloro-6-fluorophenyl)-2-(3-fluoro-4-hydroxyphenylamino)-4-((tetrahydrofuran-2-yl)methylamino)pyrimidine-5-carboxamide hydrochloride] | % Inhibition at 10 μM (ELISA) [1]: 68% and 67% |
| 90% | 94 | O=C(O)CCC(=O)N1CCN(c2ccc(Nc3ncc(Br)c(NCC4CCCO4)n3)cc2)CC1 (centres unmarked) [YL9-168, 4-(4-(4-(5-Bromo-4-((tetrahydrofuran-2-yl)methylamino)pyrimidin-2-ylamino)phenyl)piperazin-1-yl)-4-oxobutanoic acid] |  |
|  |  | CN1CCN(c2ccc(Nc3ncc(Br)c(NCC4CCCO4)n3)cc2)CC1 (centres unmarked) [Compound 18] | inhibition at 10 µM [4]: 67 ± 0.2%; inhibition at 10 µM [5]: 67% |
| 73% and 46% |  | Cl.O=C(O)Cc1ccc(Nc2ncc(Cl)c(NC[C@@H]3CCCO3)n2)cc1 [NT1-013, (S)-2-(4-(5-Chloro-4-((tetrahydrofuran-2-yl)methylamino)pyrimidin-2-ylamino)phenyl)acetic acid] |  |
| 73% and 78% (2×) | 91 | Clc1cnc(Nc2ccc(N3CCNCC3)cc2)nc1NCC1CCCO1 (centres unmarked) [MH1-007-3, 5-chloro-N2-(4-(piperazin-1-yl)phenyl)-N4-((tetrahydrofuran-2-yl)methyl)pyrimidine-2,4-diamine] |  |

| Structure (SMILES) | % Inhibition at 10 μM (ELISA) [2] | inhibition at 10 µM [3] [%] | other results |
| --- | --- | --- | --- |
| COc1ccc(Nc2ncc(Br)c(NCC3CCCO3)n2)cc1.Cl (centres unmarked) [SK1-022, 5-Bromo-N2-(4-methoxyphenyl)-N4-((tetrahydrofuran-2-yl)methyl)pyrimidine-2,4-diamine] | 67% | 68 |  |
| O=C(O)C1CCN(c2ccc(Nc3ncc(Br)c(NCC4CCCO4)n3)cc2)CC1 (centres unmarked) | 84% |  | inhibition at 10 µM (read-out: % Inhibition at 10 μM (ELISA), 10 μM, Table 1, replicate values listed): 85% |
